# Test results published in ChEMBL document CHEMBL5506038, “Discovery of LC-MI-3: A Potent and Orally Bioavailable Degrader of Interleukin-1 Receptor-Associated Kinase 4 for the Treatment of Inflammatory Diseases” (J Med Chem, 2024).
# Active and inactive are the calls of the source. The calls are words filed in the database; no cut-off is given here.
# How the values were obtained:
# RAW264.7 [1] = assay: Protection against Escherichia coli-induced sepsis in mouse RAW264.7 cells assessed as reduction in TNF-alpha level at 1 uM pretreated with compound for 6 hrs followed by Escherichia coli-induction and measured after 6 hrs by RT-PCR analysis; type: functional, cell-based; settings: time 12.0 hrs
# Mus musculus [2] = assay: Anti-inflammatory activity against LPS-induced acute […] injury C57BL/6 mouse model assessed as reduction in TNF-alpha level in lung at 20 mg/kg, IG pretreated with compound for 12 hrs followed by LPS-induction and measured after 6 hrs by RT-PCR analysis; type: functional, organism-based; settings: time 18.0 hrs
# [3] = Cmax in Sprague-Dawley rat at 2 mg/kg, iv by LC-MS/MS analysis; type: ADME, organism-based; settings: in vivo
# [4] = target: T1, Interleukin-1 receptor-associated kinase 4 (Homo sapiens, UniProt Q9NWZ3); assay: Inhibition of IRAK4 (unknown origin)
# T1 sequence (Q9NWZ3 whole entry): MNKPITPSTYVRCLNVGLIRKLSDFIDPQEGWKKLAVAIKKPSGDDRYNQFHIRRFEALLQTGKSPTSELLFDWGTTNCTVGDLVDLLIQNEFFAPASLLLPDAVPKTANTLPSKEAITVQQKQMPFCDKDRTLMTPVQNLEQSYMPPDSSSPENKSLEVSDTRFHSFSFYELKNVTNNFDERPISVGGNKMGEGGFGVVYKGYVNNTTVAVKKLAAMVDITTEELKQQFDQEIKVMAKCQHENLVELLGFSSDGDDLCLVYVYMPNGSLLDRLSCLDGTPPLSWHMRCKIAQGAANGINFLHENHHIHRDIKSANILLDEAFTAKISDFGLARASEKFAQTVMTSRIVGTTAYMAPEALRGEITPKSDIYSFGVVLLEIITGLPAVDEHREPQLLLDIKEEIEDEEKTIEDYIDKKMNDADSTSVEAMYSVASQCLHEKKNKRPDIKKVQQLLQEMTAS
# [5] = target: Protein cereblon/Interleukin-1 receptor-associated kinase 4 (Homo sapiens, UniProt Q9NWZ3+Q96SW2); assay: PROTAC activity at IRAK4/CRBN in human PBMC cells assessed as reduction in IRAK4 level at 100 nM incubated for 12 hrs by Western blot analysis; type: cell-based
# [6] = Toxicity in C57BL/6 mouse assessed as effect on body weight at 20 mg/kg, po measured for 6 days; type: organism-based; settings: in vivo, 144 h, time 6 day
# [7] = Cmax in Sprague-Dawley rat at 20 mg/kg, po by LC-MS/MS analysis; type: ADME, organism-based; settings: in vivo
# RAW264.7 [8] = assay: Activation of NF-kappaB pathway in LPS-induced mouse RAW264.7 cells expressing EGFP at 5 uM pretreated with compound for 1 hr followed by LPS-induction and measured after 6 hrs by flow cytometry analysis; type: cell-based; settings: filed as activator, time 7.0 hrs
# [9] = target: DNA-binding protein Ikaros (Homo sapiens) (UniProt Q13422); assay: Induction of IKZF1 degradation in human THP-1 cells upto 10000 nM incubated for 12 hrs by Western blotting analysis; type: cell-based
# [10] = Half life in Sprague-Dawley rat at 20 mg/kg, po by LC-MS/MS analysis; type: ADME, organism-based; settings: in vivo
# [11] = Half life in Sprague-Dawley rat at 2 mg/kg, iv by LC-MS/MS analysis; type: ADME, organism-based; settings: in vivo
# RAW264.7 [12] = assay: Effect on TNFalpha mRNA expression in LPS-induced mouse RAW264.7 cells at 1 uM pretreated with compound for 1 hr followed by LPS-induction and measured after 6 hrs by RT-PCR analysis; type: functional, cell-based; settings: time 7.0 hrs
# Mus musculus [13] = assay: Anti-inflammatory activity in imiquimod-induced C57BL/6 mouse psoriasis model assessed as improvement in swelling at 20 mg/kg, po administered twice daily measured for 6 days; type: functional, organism-based; settings: time 6.0 day
# [14] = Tmax in Sprague-Dawley rat at 20 mg/kg, po by LC-MS/MS analysis; type: ADME, organism-based; settings: in vivo
# RAW264.7 [15] = assay: Protection against Escherichia coli-induced sepsis in mouse RAW264.7 cells assessed as reduction in IL-6 production at 1 uM pretreated with compound for 6 hrs followed by Escherichia coli-induction and measured after 6 hrs by ELISA analysis; type: functional, cell-based; settings: time 12.0 hrs
# [16] = target: T2, Protein cereblon/Interleukin-1 receptor-associated kinase 4 (Mus musculus) (UniProt Q8C7D2+Q8R4K2); assay: PROTAC activity at IRAK4/CRBN in mouse RAW264.7 cells assessed as induction of IRAK4 degradation at 25 to 2500 nM incubated for 12 hrs by Western blot analysis; type: cell-based; settings: dose 25-2500 nM
# [17] = target: Serine/threonine-protein kinase RIO1 (Homo sapiens) (UniProt Q9BRS2); assay: Induction of RIOK1 degradation in human Caco-2 cells upto 10000 nM incubated for 12 hrs by Western blotting analysis; type: cell-based
# [18] = target: T2, Protein cereblon/Interleukin-1 receptor-associated kinase 4 (Mus musculus); assay: PROTAC activity at IRAK4/CRBN in mouse RAW264.7 cells assessed as reduction in IRAK4 level at 100 nM incubated for 12 hrs by Western blot analysis relative to control; type: cell-based
# [19] = Toxicity in C57BL/6 mouse assessed as lung damage at 20 mg/kg, IG by H and E staining based analysis; type: organism-based; settings: in vivo, po
# Mus musculus [20] = assay: Protection against LPS-induced sepsis in C57BL/6 mouse model assessed as improvement in survival rate at 20 mg/kg, IG measured at 12 hrs; type: functional, organism-based
# [21] = Volume of distribution at steady state in Sprague-Dawley rat at 2 mg/kg, iv by LC-MS/MS analysis; type: ADME, organism-based; settings: in vivo, read-out: Vdss
# [22] = target: T2, Protein cereblon/Interleukin-1 receptor-associated kinase 4 (Mus musculus); assay: PROTAC activity at IRAK4/CRBN in mouse RAW264.7 cells assessed as induction of IRAK4 degradation at 100 nM incubated for 12 hrs in presence of MG132 by Western blot analysis; type: cell-based
# Mus musculus [23] = assay: Anti-inflammatory activity in imiquimod-induced C57BL/6 mouse psoriasis model assessed as reduction in keratinocyte proliferation at 20 mg/kg, po administered twice daily measured for 6 days by H and E staining based analysis; type: functional, organism-based; settings: time 6.0 day
# T2 sequence (Q8C7D2 whole entry, looked up): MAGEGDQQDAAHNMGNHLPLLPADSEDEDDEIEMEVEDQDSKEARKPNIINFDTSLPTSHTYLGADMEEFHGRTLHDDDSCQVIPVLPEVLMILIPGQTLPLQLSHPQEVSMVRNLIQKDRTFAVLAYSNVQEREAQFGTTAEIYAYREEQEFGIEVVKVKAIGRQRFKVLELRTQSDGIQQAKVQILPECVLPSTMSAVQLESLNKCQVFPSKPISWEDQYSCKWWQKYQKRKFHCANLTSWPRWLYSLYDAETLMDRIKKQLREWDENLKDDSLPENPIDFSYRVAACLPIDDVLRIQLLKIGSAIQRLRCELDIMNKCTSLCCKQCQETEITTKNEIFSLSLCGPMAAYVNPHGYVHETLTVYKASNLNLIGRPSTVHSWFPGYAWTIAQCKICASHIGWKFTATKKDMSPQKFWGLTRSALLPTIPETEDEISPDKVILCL
# T2 sequence (Q8R4K2 whole entry, looked up): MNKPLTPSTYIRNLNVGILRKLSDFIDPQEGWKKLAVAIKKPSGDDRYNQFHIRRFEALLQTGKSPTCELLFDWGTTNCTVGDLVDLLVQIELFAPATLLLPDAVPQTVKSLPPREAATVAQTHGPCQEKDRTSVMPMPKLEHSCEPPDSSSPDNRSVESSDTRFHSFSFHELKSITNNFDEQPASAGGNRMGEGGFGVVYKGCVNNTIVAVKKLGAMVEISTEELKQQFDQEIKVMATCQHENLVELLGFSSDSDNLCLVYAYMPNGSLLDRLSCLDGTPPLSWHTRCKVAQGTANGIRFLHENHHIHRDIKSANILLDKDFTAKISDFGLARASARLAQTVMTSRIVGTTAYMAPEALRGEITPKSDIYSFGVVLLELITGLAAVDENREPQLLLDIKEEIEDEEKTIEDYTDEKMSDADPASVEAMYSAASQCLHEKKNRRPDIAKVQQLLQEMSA
# Serine/threonine-protein kinase RIO1 (Homo sapiens), sequence (Q9BRS2 whole entry): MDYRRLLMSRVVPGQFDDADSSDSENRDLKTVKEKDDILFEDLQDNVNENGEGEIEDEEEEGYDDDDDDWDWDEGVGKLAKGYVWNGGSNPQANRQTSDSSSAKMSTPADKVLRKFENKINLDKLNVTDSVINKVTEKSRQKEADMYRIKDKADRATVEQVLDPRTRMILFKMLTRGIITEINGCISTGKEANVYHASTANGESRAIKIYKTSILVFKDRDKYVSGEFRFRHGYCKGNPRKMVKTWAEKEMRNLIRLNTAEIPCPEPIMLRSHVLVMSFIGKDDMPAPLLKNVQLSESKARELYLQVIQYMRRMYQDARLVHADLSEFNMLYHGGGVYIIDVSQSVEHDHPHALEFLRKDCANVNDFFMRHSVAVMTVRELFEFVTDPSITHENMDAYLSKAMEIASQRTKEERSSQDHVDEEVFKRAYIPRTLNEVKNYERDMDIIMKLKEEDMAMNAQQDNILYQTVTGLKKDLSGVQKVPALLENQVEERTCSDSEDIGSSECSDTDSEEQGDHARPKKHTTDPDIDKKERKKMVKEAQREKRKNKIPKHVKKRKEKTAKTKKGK
# DNA-binding protein Ikaros (Homo sapiens), sequence (Q13422 whole entry): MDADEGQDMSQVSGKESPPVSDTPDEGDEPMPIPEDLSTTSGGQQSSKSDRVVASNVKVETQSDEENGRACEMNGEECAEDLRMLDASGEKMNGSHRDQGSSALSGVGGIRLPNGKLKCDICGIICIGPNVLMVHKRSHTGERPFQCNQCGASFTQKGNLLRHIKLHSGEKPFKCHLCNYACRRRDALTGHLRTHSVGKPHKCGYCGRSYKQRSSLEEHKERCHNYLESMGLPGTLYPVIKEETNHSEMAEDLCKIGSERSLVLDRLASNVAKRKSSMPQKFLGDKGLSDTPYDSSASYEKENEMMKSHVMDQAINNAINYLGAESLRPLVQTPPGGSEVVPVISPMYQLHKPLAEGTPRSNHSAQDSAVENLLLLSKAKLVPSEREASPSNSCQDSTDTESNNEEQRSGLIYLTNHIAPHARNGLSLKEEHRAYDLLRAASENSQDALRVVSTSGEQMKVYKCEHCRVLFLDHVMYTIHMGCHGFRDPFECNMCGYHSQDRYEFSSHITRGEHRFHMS
# Protein cereblon/Interleukin-1 receptor-associated kinase 4, sequence (Q96SW2 whole entry, looked up, one chain of several): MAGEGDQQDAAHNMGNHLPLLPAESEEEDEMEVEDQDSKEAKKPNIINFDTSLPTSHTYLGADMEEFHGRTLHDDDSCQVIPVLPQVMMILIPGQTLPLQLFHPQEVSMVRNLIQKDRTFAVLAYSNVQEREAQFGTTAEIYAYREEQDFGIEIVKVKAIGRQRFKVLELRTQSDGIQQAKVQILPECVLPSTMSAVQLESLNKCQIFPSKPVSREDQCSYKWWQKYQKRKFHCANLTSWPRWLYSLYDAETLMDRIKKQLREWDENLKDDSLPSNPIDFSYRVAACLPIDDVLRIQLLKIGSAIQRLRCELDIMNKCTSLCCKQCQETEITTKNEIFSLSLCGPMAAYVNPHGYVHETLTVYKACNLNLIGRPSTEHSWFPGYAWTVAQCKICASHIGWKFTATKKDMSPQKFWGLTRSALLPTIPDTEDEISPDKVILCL
compound,measurement,setting,value
COc1cc(N2CCN(C(=O)CCOCC#Cc3ccc4c(c3)C(=O)N(C3CCC(=O)NC3=O)C4=O)CC2)ccc1NC(=O)c1cccc(-c2ccn[nH]2)n1 (stereo not drawn),Activity,RAW264.7 [1],Active
same,Activity,Mus musculus [2],Active
same,Cmax,[3],2920 ng/mL
same,IC50,[4],< 100 nM
same,Activity,[5],Active
same,Activity,[6],Non-Toxic
same,Cmax,[7],440 ng/mL
same,Activity,RAW264.7 [8],Active
same,Activity,[9],inactive
same,half-life,[10],87.2 min
same,half-life,[11],29.2 min
same,Activity,RAW264.7 [12],Active
same,Activity,Mus musculus [13],Active
same,Tmax,[14],30 min
same,Activity,RAW264.7 [15],Active
same,Activity,[16],inactive
same,Activity,[17],inactive
same,Emax,[18],85%
same,Activity,[19],Non-Toxic
same,Activity,Mus musculus [20],Active
same,Vd,[21],0.584 L/kg
same,Activity,[22],Active
same,Activity,Mus musculus [23],Active
